Measurements taken from publication PMC4578436, “Synthesis and evaluation of the biostability and cell compatibility of novel conjugates of nucleobase, peptidic epitope, and saccharide” (Beilstein Journal of Organic Chemistry, 2015).
Where a SMILES comes first, the peptide text is derived from it. The star is where a group is joined. Adenin9ylacetyl = Nc1ncnc2c1ncn2CC(=O)*

How the values were obtained:
proteinase K [1] = biological target: T1, proteinase K (Parengyodontium album, UniProt P06873); conditions: peptide sequence alone; cited from earlier work
T1 construct: purchased Sigma
Description: This article reports the synthesis of a new class of conjugates containing a nucleobase, a peptidic epitope, and a saccharide and the evalution of their gelation, biostability, and cell compatibility. […] All the conjugates themselves (1–8) display excellent solubility in water without forming hydrogels. However, a mixture of 5 and 8 self-assembles to form nanofibers and results in a supramolecular hydrogel. The pr ...

proteinase K [2] = biological target: T1, proteinase K; assay: biostability: incubation with proteinase K; format: in vitro ADME; conditions: 24 h, 37 °C
Experimental: The existence of proteolytic enzymes in organism limits the applications of peptide-based biomaterials in vivo. […] When we changed the peptide sequence to EPTV, only 15% of 3 left.
Figure 3 Compounds remained after incubating with proteinase K (3.2 U/mL) for 24 h at 37 °C. (A) Each conjugate 1–8 is at the concentration of 0.2 mg/mL in HEPES buffer (pH 7.4). (B) Mixture of 1 + 8, 5 + 8, or 7 + 8 is in PBS buffer ([1] = [5] = [8] = 8.3 mM, pH 6.2). TEXT PRINTED IN THE PICTURE: (A) 4: Comp. remained %: Un-detectable | (A) 8: Comp. remained %: Un-detectable | (B) 8: Comp. remained %: Un-detectable (Mixtures: 7+8)
Starting materials and reagents were purchased from GL Biochem (Shanghai) Ltd. and Fisher Scientific without further purification unless otherwise noted. Proteinase K was purchased from Sigma (>800 unit/mL). The HeLa cell line (CCL-2) and the PC12 (CRL-1721.1) cell line were purchased from the American Type Culture Collection. All of the media were purchased from Invitrogen.

T1 sequence (P06873 106-384): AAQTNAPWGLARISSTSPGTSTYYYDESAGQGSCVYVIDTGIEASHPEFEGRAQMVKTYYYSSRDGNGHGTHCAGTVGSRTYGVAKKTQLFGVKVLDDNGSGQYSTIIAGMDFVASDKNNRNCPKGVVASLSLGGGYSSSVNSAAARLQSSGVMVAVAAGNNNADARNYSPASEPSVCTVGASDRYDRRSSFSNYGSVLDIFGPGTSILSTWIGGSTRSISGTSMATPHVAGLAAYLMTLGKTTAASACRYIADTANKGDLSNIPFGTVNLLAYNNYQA

Molecule	proteolytic stability of the peptidic epitope itself (proteinase K [1])	8 remained after incubating the mixture 1 + 8 with proteinase K (proteinase K [2]; mixture 1 + 8, each 8.3 mM in PBS buffer pH 6.2, proteinase K 3.2 U/mL)	8 remained after incubating the mixture 5 + 8 (hydrogel) with proteinase K (proteinase K [2]; mixture 5 + 8, each 8.3 mM in PBS buffer pH 6.2, proteinase K 3.2 U/mL)	8 remained after incubating the mixture 7 + 8 with proteinase K (proteinase K [2]; mixture 7 + 8 in PBS buffer pH 6.2, same condition as 5 + 8, proteinase K 3.2 U/mL)
TTPV	proteolytic resistant	–	–	–
CC[C@H](C)[C@H](NC(=O)[C@H](CC(N)=O)NC(=O)[C@H](Cc1ccccc1)NC(=O)CNC(=O)[C@H](CC(C)C)NC(=O)Cn1cnc2c(N)ncnc21)C(=O)O [compound 8] (Adenin9ylacetyl-LGFNI-OH)	–	about 3%	about 50%	Un-detectable
LGFNI	susceptible to proteolysis	–	–	–
